{"source": "paper PMC5218480", "about": "(PLoS ONE, 2017)", "test_system": "MV-4-11 cells", "assay": "Gene expression microarray analysis (Affymetrix PrimeView) and GSEA", "type": "cell-based, human", "parameters": "RFU PODN (11730768_x_at) / Fold change /veh PODN (11730768_x_at) / RFU LINC00158 (11744669_a_at) / Fold change /veh LINC00158 (11744669_a_at) / RFU DUSP10 (11751237_a_at) / Fold change /veh DUSP10 (11751237_a_at) / RFU ID3 (11757404_x_at) / Fold change /veh ID3 (11757404_x_at) / RFU PLEKHG5 (11737974_s_at) / Fold change /veh PLEKHG5 (11737974_s_at) / RFU LRRC4B (11730491_at) / Fold change /veh LRRC4B (11730491_at) / RFU GIMAP4 (11747438_a_at) / Fold change /veh GIMAP4 (11747438_a_at) / RFU KRT8 (11758183_x_at) / Fold change /veh KRT8 (11758183_x_at) / RFU CNN1 (11734310_a_at) / Fold change /veh CNN1 (11734310_a_at) / RFU VPS37D (11726825_at) / Fold change /veh VPS37D (11726825_at) / RFU C10orf10 (11716522_x_at) / Fold change /veh C10orf10 (11716522_x_at) / RFU KIR2DL2 /// KIR2DL4 /// KIR2DL5A /// KIR2DL5B /// KIR2DS1 /// KIR2DS2 /// KIR2DS3 /// KIR2DS4 /// KIR3DL3 /// KIR3DL3 /// KIR3DS1 (11738374_at) / Fold change /veh KIR2DL2 /// KIR2DL4 /// KIR2DL5A /// KIR2DL5B /// KIR2DS1 /// KIR2DS2 /// KIR2DS3 /// KIR2DS4 /// KIR3DL3 /// KIR3DL3 /// KIR3DS1 (11738374_at) / RFU C1QL1 (11718748_at) / Fold change /veh C1QL1 (11718748_at) / RFU TMPRSS4 (11747572_a_at) / Fold change /veh TMPRSS4 (11747572_a_at) / RFU HAMP (11756126_x_at) / Fold change /veh HAMP (11756126_x_at) / RFU RNFT2 (11725882_a_at) / Fold change /veh RNFT2 (11725882_a_at) / RFU NR4A2 (11747474_a_at) / Fold change /veh NR4A2 (11747474_a_at) / RFU ABCC12 (11746883_a_at) / Fold change /veh ABCC12 (11746883_a_at) / RFU TMEM136 (11760407_x_at) / Fold change /veh TMEM136 (11760407_x_at) / RFU CLDN22 /// WWC2 (11732394_at) / Fold change /veh CLDN22 /// WWC2 (11732394_at) / RFU HLA-DPB1 (11760878_x_at) / Fold change /veh HLA-DPB1 (11760878_x_at) / RFU SPINT1 (11716480_a_at) / Fold change /veh SPINT1 (11716480_a_at) / RFU GAP43 (11754022_s_at) / Fold change /veh GAP43 (11754022_s_at) / RFU A4GNT (11735810_at) / Fold change /veh A4GNT (11735810_at) / RFU PRB3 (11715151_x_at) / Fold change /veh PRB3 (11715151_x_at) / RFU TUBB4B (11761932_at) / Fold change /veh TUBB4B (11761932_at) / RFU CAPN14 (11732068_a_at) / Fold change /veh CAPN14 (11732068_a_at) / RFU TMCC2 (11721928_a_at) / Fold change /veh TMCC2 (11721928_a_at) / RFU IRGQ (11745062_a_at) / Fold change /veh IRGQ (11745062_a_at) / RFU FAM174B (11720279_a_at) / Fold change /veh FAM174B (11720279_a_at) / RFU TMPRSS4 (11748680_a_at) / Fold change /veh TMPRSS4 (11748680_a_at) / RFU FAM212B (11763350_a_at) / Fold change /veh FAM212B (11763350_a_at) / RFU PLEKHG5 (11743358_a_at) / Fold change /veh PLEKHG5 (11743358_a_at) / RFU ZSCAN30 (11745921_a_at) / Fold change /veh ZSCAN30 (11745921_a_at) / RFU CMKLR1 (11741424_a_at) / Fold change /veh CMKLR1 (11741424_a_at) / RFU LOC101060620 /// MAPK8IP1 (11723275_at) / Fold change /veh LOC101060620 /// MAPK8IP1 (11723275_at) / RFU SPTSSB (11747773_x_at) / Fold change /veh SPTSSB (11747773_x_at) / RFU PRSS12 (11739890_at) / Fold change /veh PRSS12 (11739890_at) / RFU BIN1 (11741810_x_at) / Fold change /veh BIN1 (11741810_x_at) / RFU WNT11 (11732464_a_at) / Fold change /veh WNT11 (11732464_a_at) / RFU C10orf10 (11716521_a_at) / Fold change /veh C10orf10 (11716521_a_at) / RFU C5orf56 (11738089_at) / Fold change /veh C5orf56 (11738089_at) / RFU CYB561 (11721691_x_at) / Fold change /veh CYB561 (11721691_x_at) / RFU ANKRD19P (11752326_a_at) / Fold change /veh ANKRD19P (11752326_a_at) / RFU OR2T12 /// OR2T33 /// OR2T8 (11738714_s_at) / Fold change /veh OR2T12 /// OR2T33 /// OR2T8 (11738714_s_at) / RFU VCAN (11748164_a_at) / Fold change /veh VCAN (11748164_a_at) / RFU JSRP1 (11732532_at) / Fold change /veh JSRP1 (11732532_at) / RFU KRTAP10-11 (11738290_x_at) / Fold change /veh KRTAP10-11 (11738290_x_at) / RFU MYO3A (11730013_a_at) / Fold change /veh MYO3A (11730013_a_at) / RFU EBF3 (11725865_a_at) / Fold change /veh EBF3 (11725865_a_at) / RFU CAMK2N1 (11719241_x_at) / Fold change /veh CAMK2N1 (11719241_x_at) / RFU C5orf56 (11738088_a_at) / Fold change /veh C5orf56 (11738088_a_at) / RFU OLFML3 (11715873_a_at) / Fold change /veh OLFML3 (11715873_a_at) / RFU LOC100653217 /// NTM (11731650_a_at) / Fold change /veh LOC100653217 /// NTM (11731650_a_at) / RFU MAPK11 (11762145_a_at) / Fold change /veh MAPK11 (11762145_a_at) / RFU FIZ1 (11724087_x_at) / Fold change /veh FIZ1 (11724087_x_at) / RFU OASL (11726364_x_at) / Fold change /veh OASL (11726364_x_at) / RFU SOX15 (11748057_x_at) / Fold change /veh SOX15 (11748057_x_at) / RFU CD79A (11719716_a_at) / Fold change /veh CD79A (11719716_a_at) / RFU HIST1H1D (11736915_at) / Fold change /veh HIST1H1D (11736915_at) / RFU CASKIN2 (11723855_a_at) / Fold change /veh CASKIN2 (11723855_a_at) / RFU LOC730098 (11760151_x_at) / Fold change /veh LOC730098 (11760151_x_at) / RFU OR4N2 (11742367_at) / Fold change /veh OR4N2 (11742367_at) / RFU PRRT2 (11749266_a_at) / Fold change /veh PRRT2 (11749266_a_at) / RFU SNX32 (11753110_a_at) / Fold change /veh SNX32 (11753110_a_at) / RFU CDHR5 (11726645_a_at) / Fold change /veh CDHR5 (11726645_a_at) / RFU RCAN1 (11760418_a_at) / Fold change /veh RCAN1 (11760418_a_at) / RFU FAM167A (11723789_a_at) / Fold change /veh FAM167A (11723789_a_at) / RFU FAM26E (11764081_at) / Fold change /veh FAM26E (11764081_at) / RFU ISYNA1 (11749810_s_at) / Fold change /veh ISYNA1 (11749810_s_at) / RFU ACY1 (11761880_at) / Fold change /veh ACY1 (11761880_at) / RFU 11764098_at / Fold change /veh 11764098_at / RFU SAMD14 (11745864_x_at) / Fold change /veh SAMD14 (11745864_x_at) / RFU NPB (11741838_a_at) / Fold change /veh NPB (11741838_a_at) / RFU TMPRSS6 (11731388_a_at) / Fold change /veh TMPRSS6 (11731388_a_at) / RFU KRTAP10-2 (11738614_at) / Fold change /veh KRTAP10-2 (11738614_at) / RFU ARHGAP8 /// PRR5-ARHGAP8 (11727945_x_at) / Fold change /veh ARHGAP8 /// PRR5-ARHGAP8 (11727945_x_at) / RFU KRTAP5-7 /// NADSYN1 (11734609_at) / Fold change /veh KRTAP5-7 /// NADSYN1 (11734609_at) / RFU RASL12 (11751679_a_at) / Fold change /veh RASL12 (11751679_a_at) / RFU CDKN2B (11736163_a_at) / Fold change /veh CDKN2B (11736163_a_at) / RFU PRF1 (11729649_at) / Fold change /veh PRF1 (11729649_at) / RFU, ZNF638 /// ZNF638-IT1 / Fold change vs veh, ZNF638 /// ZNF638-IT1 / RFU, PANK3 / Fold change vs veh, PANK3 / RFU, SH3YL1 / Fold change vs veh, SH3YL1 / RFU, ZEB2 / Fold change vs veh, ZEB2 / RFU, NRIP1 / Fold change vs veh, NRIP1 / RFU, PTTG1IP / Fold change vs veh, PTTG1IP / RFU, CAPN2 / Fold change vs veh, CAPN2 / RFU, MED14 / Fold change vs veh, MED14 / RFU, SNORA58 / Fold change vs veh, SNORA58 / RFU, C1orf63 / Fold change vs veh, C1orf63 / RFU, LRRFIP1 / Fold change vs veh, LRRFIP1 / RFU, NDUFAF7 / Fold change vs veh, NDUFAF7 / RFU, SLC12A2 / Fold change vs veh, SLC12A2 / RFU, IBTK / Fold change vs veh, IBTK / RFU, ESF1 / Fold change vs veh, ESF1 / Fold change vs veh, TMEM50B / RFU, TAOK1 / Fold change vs veh, TAOK1 / RFU, ACBD3 / Fold change vs veh, ACBD3 / RFU, TMA16 / Fold change vs veh, TMA16 / RFU, RWDD3 / Fold change vs veh, RWDD3 / RFU, BCAT1 / Fold change vs veh, BCAT1 / RFU, EDEM3 / Fold change vs veh, EDEM3 / RFU, TMEM33 / Fold change vs veh, TMEM33 / RFU, WDR75 / Fold change vs veh, WDR75 / RFU, AHCTF1 / Fold change vs veh, AHCTF1 / RFU, TFRC / Fold change vs veh, TFRC / RFU, ZDHHC17 / Fold change vs veh, ZDHHC17 / RFU, NOM1 / Fold change vs veh, NOM1 / RFU, ARL8B / Fold change vs veh, ARL8B / RFU, ZBTB11 / Fold change vs veh, ZBTB11 / RFU, TAMM41 / Fold change vs veh, TAMM41 / RFU, KIAA1704 /// LOC100996395 / Fold change vs veh, KIAA1704 /// LOC100996395 / RFU, ING1 / Fold change vs veh, ING1 / RFU, TRMT61B / Fold change vs veh, TRMT61B / RFU, FUBP3 / Fold change vs veh, FUBP3 / RFU, TP53 / Fold change vs veh, TP53 / RFU, TNKS2 / Fold change vs veh, TNKS2 / RFU, ZFP14 / Fold change vs veh, ZFP14 / RFU, ACTR2 / Fold change vs veh, ACTR2 / RFU, PPP3R1 / Fold change vs veh, PPP3R1 / RFU, PIK3R1 / Fold change vs veh, PIK3R1 / RFU, HNRNPA1 / Fold change vs veh, HNRNPA1 / RFU, RNF170 / Fold change vs veh, RNF170 / RFU, ZNF28 / Fold change vs veh, ZNF28 / RFU, RNGTT / Fold change vs veh, RNGTT / RFU, OGT / Fold change vs veh, OGT / RFU, BRD1 / Fold change vs veh, BRD1 / RFU, MARS / Fold change vs veh, MARS / RFU, ZNF655 / Fold change vs veh, ZNF655 / RFU, FAHD1 / Fold change vs veh, FAHD1 / RFU, BDP1 / Fold change vs veh, BDP1 / RFU, LRRCC1 / Fold change vs veh, LRRCC1 / RFU, ARID1A / Fold change vs veh, ARID1A / RFU, ZNF146 / Fold change vs veh, ZNF146 / RFU, ZNF330 / Fold change vs veh, ZNF330 / RFU, GPN3 / Fold change vs veh, GPN3 / RFU, C9orf123 / Fold change vs veh, C9orf123 / RFU, N4BP2L2 / Fold change vs veh, N4BP2L2 / RFU, ARFIP1 / Fold change vs veh, ARFIP1 / RFU, FAM179B / Fold change vs veh, FAM179B / RFU, BCL10 / Fold change vs veh, BCL10 / RFU, UHRF1BP1L / Fold change vs veh, UHRF1BP1L / RFU, BET1 / Fold change vs veh, BET1 / RFU, CNOT2 / Fold change vs veh, CNOT2 / RFU, ZNF268 / Fold change vs veh, ZNF268 / Fold change vs veh, ZNF507 / RFU, DGCR2 / Fold change vs veh, DGCR2 / RFU, WDSUB1 / Fold change vs veh, WDSUB1 / Fold change vs veh, HSP90B1 /// MIR3652 / RFU, ADSS / Fold change vs veh, ADSS / RFU, GK / Fold change vs veh, GK / RFU, ZNF148 / Fold change vs veh, ZNF148 / RFU, TAF9 / Fold change vs veh, TAF9 / RFU, SLC1A5 / Fold change vs veh, SLC1A5 / RFU, SLMO2 / Fold change vs veh, SLMO2 / RFU, ABCC4 / Fold change vs veh, ABCC4 / RFU, LOC101060439 /// RAP1B / Fold change vs veh, LOC101060439 /// RAP1B / RFU, RFX7 / Fold change vs veh, RFX7 / RFU, GTPBP10 / Fold change vs veh, GTPBP10 / RFU, CNEP1R1 / Fold change vs veh, CNEP1R1 / RFU, BIVM-ERCC5 /// ERCC5 / Fold change vs veh, BIVM-ERCC5 /// ERCC5 / RFU, ILF3 / Fold change vs veh, ILF3 / RFU 11762660_at / Fold change /veh 11762660_at / RFU VCAN (11757783_s_at) / Fold change /veh VCAN (11757783_s_at) / RFU DDX43 (11728927_at) / Fold change /veh DDX43 (11728927_at) / RFU KRT8 (11758188_x_at) / Fold change /veh KRT8 (11758188_x_at) / RFU NKD1 (11759106_at) / Fold change /veh NKD1 (11759106_at) / RFU SRD5A1 (11742802_a_at) / Fold change /veh SRD5A1 (11742802_a_at) / RFU TPSAB1 /// TPSB2 (11721975_s_at) / Fold change /veh TPSAB1 /// TPSB2 (11721975_s_at) / RFU GSTM3 (11746129_a_at) / Fold change /veh GSTM3 (11746129_a_at) / RFU IL23R (11737362_x_at) / Fold change /veh IL23R (11737362_x_at) / RFU TMEM51 (11727254_a_at) / Fold change /veh TMEM51 (11727254_a_at) / RFU PIWIL2 (11732686_x_at) / Fold change /veh PIWIL2 (11732686_x_at) / RFU ORM1 (11744905_x_at) / Fold change /veh ORM1 (11744905_x_at) / RFU CCDC152 (11743942_at) / Fold change /veh CCDC152 (11743942_at) / RFU ECM1 (11717891_a_at) / Fold change /veh ECM1 (11717891_a_at) / RFU IL23R (11748794_a_at) / Fold change /veh IL23R (11748794_a_at) / RFU TNFAIP8L3 (11732012_x_at) / Fold change /veh TNFAIP8L3 (11732012_x_at) / RFU MBOAT4 (11741988_at) / Fold change /veh MBOAT4 (11741988_at) / RFU 11764193_at / Fold change /veh 11764193_at / RFU TMEM53 (11763286_at) / Fold change /veh TMEM53 (11763286_at) / RFU MAGEB2 (11727129_at) / Fold change /veh MAGEB2 (11727129_at) / RFU TMEM200A (11744735_a_at) / Fold change /veh TMEM200A (11744735_a_at) / RFU CCDC152 (11751479_a_at) / Fold change /veh CCDC152 (11751479_a_at) / RFU FAM211A (11726209_a_at) / Fold change /veh FAM211A (11726209_a_at) / RFU RGS16 (11746705_a_at) / Fold change /veh RGS16 (11746705_a_at) / RFU VCAN (11755009_s_at) / Fold change /veh VCAN (11755009_s_at) / RFU RHOB (11743442_s_at) / Fold change /veh RHOB (11743442_s_at) / RFU RGS16 (11720943_a_at) / Fold change /veh RGS16 (11720943_a_at) / RFU RGS16 (11720944_at) / Fold change /veh RGS16 (11720944_at) / RFU, VPS4B / Fold change vs veh, VPS4B / RFU, CREB1 / Fold change vs veh, CREB1 / RFU, DNAJC13 / Fold change vs veh, DNAJC13 / RFU, GNAQ / Fold change vs veh, GNAQ / RFU, CDK5R1 / Fold change vs veh, CDK5R1 / RFU, ZRANB3 / Fold change vs veh, ZRANB3 / RFU, CUL4A / Fold change vs veh, CUL4A / RFU, CCNY / Fold change vs veh, CCNY / RFU, UFL1 / Fold change vs veh, UFL1 / RFU, COG3 / Fold change vs veh, COG3 / RFU, DIAPH2 / Fold change vs veh, DIAPH2 / RFU, SKA2 / Fold change vs veh, SKA2 / RFU, AFF3 / Fold change vs veh, AFF3 / RFU, LMF1 / Fold change vs veh, LMF1 / RFU, IPO11 / Fold change vs veh, IPO11 / RFU, DFFB / Fold change vs veh, DFFB / RFU, FOXP1 / Fold change vs veh, FOXP1 / RFU, CARD8 / Fold change vs veh, CARD8 / RFU, STRN3 / Fold change vs veh, STRN3 / RFU, ADK / Fold change vs veh, ADK / RFU, RASSF2 / Fold change vs veh, RASSF2 / RFU, WIPF1 / Fold change vs veh, WIPF1 / RFU, LARP1B / Fold change vs veh, LARP1B / RFU, RASA1 / Fold change vs veh, RASA1 / RFU, RB1 / Fold change vs veh, RB1 / RFU, PPFIA1 / Fold change vs veh, PPFIA1 / RFU, MAT2A / Fold change vs veh, MAT2A / RFU, CCT5 / Fold change vs veh, CCT5 / RFU, WDR92 / Fold change vs veh, WDR92 / RFU, CUX1 / Fold change vs veh, CUX1 / RFU, TTC7A / Fold change vs veh, TTC7A / RFU, TMEM135 / Fold change vs veh, TMEM135 / RFU, DEPTOR / Fold change vs veh, DEPTOR / RFU, CPM / Fold change vs veh, CPM / RFU, DNAJB6 / Fold change vs veh, DNAJB6 / RFU, CACNA2D3 / Fold change vs veh, CACNA2D3 / RFU, DTX4 / Fold change vs veh, DTX4 / RFU, TFCP2 / Fold change vs veh, TFCP2 / RFU, GMCL1 /// GMCL1P1 / Fold change vs veh, GMCL1 /// GMCL1P1 / RFU, AEBP2 / Fold change vs veh, AEBP2 / RFU, SNHG1 /// SNORD22 /// SNORD25 /// SNORD26 /// SNORD27 /// SNORD28 /// SNORD29 /// SNORD31 / Fold change vs veh, SNHG1 /// SNORD22 /// SNORD25 /// SNORD26 /// SNORD27 /// SNORD28 /// SNORD29 /// SNORD31 / Fold change (Aza/veh), C12orf56 (ProbeSet 11735607_a_at) / Fold change (ACY-1035/veh), C12orf56 (ProbeSet 11735607_a_at) / Fold change (Aza/veh), FGFR1OP (ProbeSet 11751329_s_at) / Fold change (ACY-1035/veh), FGFR1OP (ProbeSet 11751329_s_at) / Fold change (Aza/veh), VPS36 (ProbeSet 11739960_a_at) / Fold change (ACY-1035/veh), VPS36 (ProbeSet 11739960_a_at) / RFU SYPL1 (11715823_x_at) / Fold change /veh SYPL1 (11715823_x_at) / RFU IGFBP7 (11715501_s_at) / Fold change /veh IGFBP7 (11715501_s_at) / RFU REEP3 (11722064_at) / Fold change /veh REEP3 (11722064_at) / RFU IGLL1 (11728026_x_at) / Fold change /veh IGLL1 (11728026_x_at): dose or concentration left out as unconfirmed", "conditions": "ProbeSet 11749645_x_at; LIST B"}
{"smiles": "Nc1ccc(-c2cccs2)cc1NC(=O)c1ccc2c(c1)cc(C1CC1)n2CCN1CCOCC1", "note": "[ACY-1035]", "values": [{"measurement": "RFU, ZNF268", "value": 141.54, "unit": "RFU"}]}
